Values of other authors, collected in US20080213374A1, “NANOPARTICULATE SORAFENIB FORMULATIONS” (Elan Pharma International Limited, priority 2006, published 2008).

Row | solubility in water | solubility in PEG 400 (PEG 400) | solubility in aqueous media (aqueous media) | solubility in ethanol (ethanol) | Compound
1 | practically insoluble |  |  |  | CNC(=O)c1cc(Oc2ccc(NC(=O)Nc3ccc(Cl)c(C(F)(F)F)c3)cc2)ccn1 [Sorafenib]
2 | practically insoluble | soluble | practically insoluble | slightly soluble | CNC(=O)c1cc(Oc2ccc(NC(=O)Nc3ccc(Cl)c(C(F)(F)F)c3)cc2)ccn1.Cc1ccc(S(=O)(=O)O)cc1 [Sorafenib tosylate, 4-(4-{3-[4-Chloro-3-(trifluoromethyl)phenyl]ureido}phenoxy)-N2-methylpyridine-2-carboxamide 4-methylbenzenesulfonate]
